The target in assay [1] is T1, Porcine kidney-derived DPP-IV (Sus scrofa, UniProt P22411).
T1 construct: Porcine kidney-derived DPP-IV was dissolved in a reaction buffer; from tissue; host or cells: porcine kidney
The assay can be described thus: DPPIV-inhibiting activity assay. The assay is classed as biochemical. As to conditions: Gly-Pro-p-nitroanilide 0.33 mM, reaction time 20 minutes, absorbance at 405 nm. How it is done:
DPPIV-Inhibiting Activity Assay
Porcine kidney-derived DPP-IV was dissolved in a reaction buffer (50 mM Tris-HCl (pH 7.4)/0.1% BSA) at a concentration of 10 mg/ml. After 110 μl of this solution had been combined with 15 μl of an agent, the mixture was incubated at room temperature for 20 minutes. 25 μl of 2 mM Gly-Pro-p-nitroanilide was added (to a final concentration of 0.33 mM) to the solution to initiate the enzyme reaction. The reaction time was 20 minutes. 25 μl of 1N phosphoric acid solution was added to the reaction solution to quench the reaction.

Assay [2] concerns male C57BL/6N mice. In words: Acceptable timing of administration in in vivo test. As to conditions: oral, simultaneously with vs one hour before glucose loading (2 g/kg); improvement factor for glucose tolerance compared. How it is done:
Acceptable Timing of Administration in in vivo Test
The respective tests described below were carried out in combination with the in vivo test (administration before 0.5 hour) as described in Assay Example 2:
1. A test compound is administered simultaneously with glucose loading (2 g/kg) (the test compound is suspended in an aqueous solution of 0.5% methyl cellulose; the solution is combined with an equal volume of a glucose solution; and the mixture is administered orally at a dose of 10 ml/kg);
2. A test compound is administered one hour before glucose loading (2 g/kg) (the test compound suspended in an aqueous solution of 0.5% methyl cellulose is administered orally one hour before the oral administration of the glucose solution; each is given orally at a dose of 10 ml/kg).
The improvement factor for glucose tolerance is estimated in each test.

Assay [3] relates to fasted male Wistar rats. The assay can be described thus: Effect on the blood glucose level of fasted male Wistar rats (in vivo test). As to conditions: oral dose of 10-30 (mg/kg); 0.5, 1 and 3 hours after administration; compared with control group treated with the medium alone. How it is done: Purpose: Effect of a Test Compound on the Blood Glucose Level of Fasted Male Wistar Rats
Animal: male Wistar rats (purchased from Charles River Japan, Inc.)
A test compound was suspended in 0.5% methyl cellulose (MC) solution and administered orally at a dose of 5 mL/kg. The control group was treated with a 0.5% MC solution. The solution was administered orally at a dose of 5 mL/kg.
Immediately before administering a test compound or 0.5% MC solution, and 0.5, 1, and 3 hours after the administration, without anesthetic the caudal vein was lightly cut with a razor blade to let the blood out. 10 μL of blood was collected and combined with 140 μL of 0.6 M perchloric acid solution. The sample was centrifuged at 3000 g at 4° C. for 10 minutes and the resultant supernatant was assayed with the Glucose CII TEST WAKO (Wako Pure Chemical Industries).

For assay [4], the target named is T2, CYP1A2 (Homo sapiens, UniProt P05177).
T2 construct: purchased GENTEST Corp
T2 sequence (P05177 1-516): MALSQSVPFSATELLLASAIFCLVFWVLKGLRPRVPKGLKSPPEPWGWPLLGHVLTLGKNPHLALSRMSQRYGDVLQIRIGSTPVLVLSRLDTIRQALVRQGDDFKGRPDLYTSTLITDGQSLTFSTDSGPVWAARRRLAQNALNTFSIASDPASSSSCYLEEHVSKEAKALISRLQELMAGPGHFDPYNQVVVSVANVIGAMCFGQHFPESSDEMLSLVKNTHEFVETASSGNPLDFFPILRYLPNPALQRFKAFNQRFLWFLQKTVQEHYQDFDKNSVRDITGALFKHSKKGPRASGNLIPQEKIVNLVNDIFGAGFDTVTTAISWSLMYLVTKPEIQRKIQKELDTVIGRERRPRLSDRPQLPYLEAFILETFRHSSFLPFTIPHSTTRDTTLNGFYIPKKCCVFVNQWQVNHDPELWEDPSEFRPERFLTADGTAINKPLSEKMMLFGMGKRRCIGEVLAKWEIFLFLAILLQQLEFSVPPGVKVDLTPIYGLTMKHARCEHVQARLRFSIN
The assay can be described thus: Assessment for drug-metabolizing enzyme (cytochrome P450), CYP1A2. Type of assay: in vitro ADME. As to conditions: recombinant P450, fluorescent substrate CEC. How it is done:
(§1) <Assessment for Drug-Metabolizing Enzyme (Cytochrome P450)>
(§2) The experimental conditions used are shown below. The fluorescence intensity was determined using a plate reader (CYTO FLUOR Multi-Well Plate Reader Series 4000; PerSeptive Biosystems Corp.). The degree of inhibition was determined as a mean value from nine independent assays […] using as an index the intensity fluorescence emitted from the metabolite of the fluorescent substrate.
(§3) The substrates, metabolites, inhibitors, excitation wavelengths, and fluorescence wavelengths used in the assay are shown in Table 2.

The target in assay [5] is T3, CYP2C9 (Homo sapiens, UniProt P11712).
T3 construct: purchased GENTEST Corp
In words: Assessment for drug-metabolizing enzyme (cytochrome P450), CYP2C9. As to conditions: recombinant P450, fluorescent substrate MFC. Type of assay: in vitro ADME. How it is done: as §1, §2, §3

Assay [6] concerns the target T4, CYP2C19 (Homo sapiens, UniProt P33261).
T4 construct: purchased GENTEST Corp
The assay can be described thus: Assessment for drug-metabolizing enzyme (cytochrome P450), CYP2C19. Type of assay: in vitro ADME. As to conditions: recombinant P450, fluorescent substrate CEC. How it is done: as §1, §2, §3

The target of assay [7] is T5, CYP2D6 (Homo sapiens, UniProt P10635).
T5 construct: purchased GENTEST Corp
In words: Assessment for drug-metabolizing enzyme (cytochrome P450), CYP2D6. Type of assay: in vitro ADME. As to conditions: recombinant P450, fluorescent substrate AMMC. The procedure:
as §1, §2, §3

The target of assay [8] is T6, CYP3A4 (Homo sapiens, UniProt P08684).
T6 construct: purchased GENTEST Corp
The assay can be described thus: Assessment for drug-metabolizing enzyme (cytochrome P450), CYP3A4. The assay is classed as in vitro ADME. As to conditions: recombinant P450, fluorescent substrate BFC. How it is done:
as §1, §2, §3

For assay [9], the target named is T7, hERG channel (Homo sapiens, UniProt Q12809).
T7 construct: expressed in transfected cells; host or cells: HEK-293 cells (cell line established by the inventors)
In words: Suppression of hERG channel current. Type of assay: cell-based. As to conditions: HEK-293 cells with hERG channel gene (subtype 1), patch clamp, peak tail current at −50 mV. The procedure:
<Suppression of hERG Channel Current>
(1) Activity towards inhibiting the hERG channel current was evaluated according to the report Zhou, Z et al, Biophysical Journal, 74(1), 230-241 (1998).
(2) This experiment was carried out using HEK-293 cells into which the hERG channel gene (subtype 1) had been introduced (the cell line was established by the inventors).
(3) One to several days before the experiment, cells were plated on a poly-lysine-coated glass plate. The cells were cultured until the day of the experiment. At the start of the experiment, the cell-seeded glass plate was transferred into a bath for current measurement. The hERG channel current was measured by the voltage clamp method using the patch clamp technique. The current was measured using a current amplifier (Axon Instruments). The current was recorded and analyzed using pCLAMP software (Axon Instruments).
(4) The hERG channel current was induced by applying to the cells a depolarizing pulse from a holding potential of −80 mV to +20 mV for 5 seconds and to −50 mV for 4 seconds, at 20 second intervals. After the current became stable in a control solution, the cells were perfused with solutions containing various concentrations of test compounds.
(5) The amplitude of the hERG channel current was defined as the peak value of the tail current observed upon restoring the potential to −50 mV. The inhibiting effect of a test compound on the hERG channel current (IC50) was estimated based on the change in the peak value of tail current upon addition of the test compound at various concentrations. The peak value of tail current recorded for a normal solution was taken as 100%.

Each structure is given as a SMILES string. Counter-ions that a name gives are not always drawn. A value given as a limit tells only on which side of the number the result lay.

T1 sequence (P22411 whole entry): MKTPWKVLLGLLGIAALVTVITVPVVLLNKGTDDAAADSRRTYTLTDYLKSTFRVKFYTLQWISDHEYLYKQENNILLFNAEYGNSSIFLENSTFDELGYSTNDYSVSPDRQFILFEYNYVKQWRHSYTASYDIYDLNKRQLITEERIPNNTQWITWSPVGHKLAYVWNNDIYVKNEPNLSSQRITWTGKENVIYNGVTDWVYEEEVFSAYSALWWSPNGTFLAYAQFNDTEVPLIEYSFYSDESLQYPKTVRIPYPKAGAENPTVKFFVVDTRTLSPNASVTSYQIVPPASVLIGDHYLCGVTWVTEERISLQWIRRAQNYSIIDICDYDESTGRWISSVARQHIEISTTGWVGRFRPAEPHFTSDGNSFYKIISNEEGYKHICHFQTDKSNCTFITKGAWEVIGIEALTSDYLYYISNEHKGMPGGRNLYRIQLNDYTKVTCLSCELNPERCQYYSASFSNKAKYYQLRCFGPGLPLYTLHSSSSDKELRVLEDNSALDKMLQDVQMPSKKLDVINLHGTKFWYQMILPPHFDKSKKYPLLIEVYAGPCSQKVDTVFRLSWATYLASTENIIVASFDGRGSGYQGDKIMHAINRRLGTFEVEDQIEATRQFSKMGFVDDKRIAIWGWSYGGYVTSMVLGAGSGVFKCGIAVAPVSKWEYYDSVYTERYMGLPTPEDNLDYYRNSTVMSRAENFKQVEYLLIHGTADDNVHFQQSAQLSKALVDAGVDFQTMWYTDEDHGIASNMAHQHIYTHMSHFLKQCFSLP
T6 sequence (P08684 whole entry): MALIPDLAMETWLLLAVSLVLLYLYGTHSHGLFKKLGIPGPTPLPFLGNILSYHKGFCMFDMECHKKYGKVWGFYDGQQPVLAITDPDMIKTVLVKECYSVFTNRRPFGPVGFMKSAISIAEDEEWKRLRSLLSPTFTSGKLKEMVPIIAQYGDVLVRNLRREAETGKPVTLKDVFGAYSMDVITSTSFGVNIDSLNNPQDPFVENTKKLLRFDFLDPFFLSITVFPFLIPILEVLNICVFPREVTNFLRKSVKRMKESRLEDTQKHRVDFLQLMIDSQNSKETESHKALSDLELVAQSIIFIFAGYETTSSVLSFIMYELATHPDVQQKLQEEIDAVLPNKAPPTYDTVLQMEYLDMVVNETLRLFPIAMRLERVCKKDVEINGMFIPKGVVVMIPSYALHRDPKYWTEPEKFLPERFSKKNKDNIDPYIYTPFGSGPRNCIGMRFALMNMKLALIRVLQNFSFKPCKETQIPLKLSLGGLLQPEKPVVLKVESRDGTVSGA
T4 sequence (P33261 whole entry): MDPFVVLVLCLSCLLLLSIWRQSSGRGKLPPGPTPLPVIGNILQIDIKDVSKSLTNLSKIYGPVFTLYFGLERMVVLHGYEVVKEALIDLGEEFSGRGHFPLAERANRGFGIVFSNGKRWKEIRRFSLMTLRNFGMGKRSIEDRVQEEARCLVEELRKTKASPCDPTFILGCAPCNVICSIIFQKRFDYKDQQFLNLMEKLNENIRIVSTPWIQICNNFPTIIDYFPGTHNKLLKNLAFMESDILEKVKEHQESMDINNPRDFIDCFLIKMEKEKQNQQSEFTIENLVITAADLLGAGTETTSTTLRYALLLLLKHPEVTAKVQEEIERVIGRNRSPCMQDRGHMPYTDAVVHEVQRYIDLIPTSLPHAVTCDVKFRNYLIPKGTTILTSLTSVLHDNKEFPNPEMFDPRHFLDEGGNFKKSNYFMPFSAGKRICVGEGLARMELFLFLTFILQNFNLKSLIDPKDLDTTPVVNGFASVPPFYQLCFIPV
T5 sequence (P10635 whole entry): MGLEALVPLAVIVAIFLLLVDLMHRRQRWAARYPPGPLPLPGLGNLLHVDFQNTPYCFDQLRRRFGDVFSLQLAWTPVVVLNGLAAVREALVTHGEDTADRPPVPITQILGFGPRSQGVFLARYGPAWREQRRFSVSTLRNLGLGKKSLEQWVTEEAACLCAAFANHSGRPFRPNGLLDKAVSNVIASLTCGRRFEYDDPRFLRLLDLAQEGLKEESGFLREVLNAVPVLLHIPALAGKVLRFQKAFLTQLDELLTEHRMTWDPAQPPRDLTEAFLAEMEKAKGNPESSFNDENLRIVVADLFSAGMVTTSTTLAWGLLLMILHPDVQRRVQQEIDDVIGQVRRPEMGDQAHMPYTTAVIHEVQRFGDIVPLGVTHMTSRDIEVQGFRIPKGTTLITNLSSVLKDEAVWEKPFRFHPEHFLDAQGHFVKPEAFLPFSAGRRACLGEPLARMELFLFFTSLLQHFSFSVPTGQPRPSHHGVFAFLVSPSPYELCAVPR
T7 sequence (Q12809 whole entry): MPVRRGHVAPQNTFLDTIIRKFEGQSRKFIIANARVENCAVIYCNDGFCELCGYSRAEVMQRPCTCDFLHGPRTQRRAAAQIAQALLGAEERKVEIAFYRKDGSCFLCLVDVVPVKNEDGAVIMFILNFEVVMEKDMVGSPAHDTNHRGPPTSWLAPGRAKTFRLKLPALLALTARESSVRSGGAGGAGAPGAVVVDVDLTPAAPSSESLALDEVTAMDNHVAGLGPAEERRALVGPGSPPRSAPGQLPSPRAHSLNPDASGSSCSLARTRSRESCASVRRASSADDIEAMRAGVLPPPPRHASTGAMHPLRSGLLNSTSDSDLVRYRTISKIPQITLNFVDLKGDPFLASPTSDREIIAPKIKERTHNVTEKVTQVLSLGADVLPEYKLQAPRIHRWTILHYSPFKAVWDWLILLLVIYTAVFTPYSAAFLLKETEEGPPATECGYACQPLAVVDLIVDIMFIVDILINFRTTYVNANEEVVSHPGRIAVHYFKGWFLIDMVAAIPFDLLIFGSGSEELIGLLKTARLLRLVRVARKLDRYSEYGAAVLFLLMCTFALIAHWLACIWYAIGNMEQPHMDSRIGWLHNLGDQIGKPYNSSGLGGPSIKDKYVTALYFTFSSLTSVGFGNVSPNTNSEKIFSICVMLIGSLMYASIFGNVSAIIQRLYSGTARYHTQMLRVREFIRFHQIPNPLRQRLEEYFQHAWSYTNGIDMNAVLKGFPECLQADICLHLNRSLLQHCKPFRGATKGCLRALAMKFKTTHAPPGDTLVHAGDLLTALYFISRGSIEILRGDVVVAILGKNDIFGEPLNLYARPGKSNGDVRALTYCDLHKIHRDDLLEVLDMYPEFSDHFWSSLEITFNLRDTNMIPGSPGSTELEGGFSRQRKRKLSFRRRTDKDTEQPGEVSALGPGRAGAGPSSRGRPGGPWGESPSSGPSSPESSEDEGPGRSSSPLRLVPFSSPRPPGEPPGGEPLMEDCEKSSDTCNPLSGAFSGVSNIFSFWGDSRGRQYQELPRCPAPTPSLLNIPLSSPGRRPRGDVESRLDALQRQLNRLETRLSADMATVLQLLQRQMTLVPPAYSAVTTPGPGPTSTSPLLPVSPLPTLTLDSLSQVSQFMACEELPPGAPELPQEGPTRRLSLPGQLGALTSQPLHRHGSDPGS
T3 sequence (P11712 whole entry): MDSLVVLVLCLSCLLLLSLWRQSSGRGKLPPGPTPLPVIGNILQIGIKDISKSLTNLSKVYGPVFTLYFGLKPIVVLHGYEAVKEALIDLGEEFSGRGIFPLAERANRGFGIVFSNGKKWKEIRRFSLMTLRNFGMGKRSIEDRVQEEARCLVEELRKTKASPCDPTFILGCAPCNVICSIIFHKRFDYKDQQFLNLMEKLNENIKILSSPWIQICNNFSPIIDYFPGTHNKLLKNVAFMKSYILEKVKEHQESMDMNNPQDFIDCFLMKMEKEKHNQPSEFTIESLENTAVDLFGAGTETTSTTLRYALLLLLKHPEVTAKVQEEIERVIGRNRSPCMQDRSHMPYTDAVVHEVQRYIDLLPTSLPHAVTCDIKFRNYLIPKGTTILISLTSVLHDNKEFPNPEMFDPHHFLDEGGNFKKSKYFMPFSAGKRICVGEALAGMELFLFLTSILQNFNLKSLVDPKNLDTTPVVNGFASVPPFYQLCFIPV

Turning to `CC#CCn1c(N2CCNCC2)nc2nc(Oc3ccccc3CC(=O)OC)n(C)c(=O)c21` [Example 4, Methyl 2-[7-(2-butynyl)-1-methyl-6-oxo-8-(piperazin-1-yl)-6,7-dihydro-1H-purin-2-yloxy]phenylacetate trifluoroacetate], in assay [1], it took 0.211 µM to reach half-maximal inhibition (IC50).

With `CC#CCn1c(N2CCNCC2)nc2nc(C#N)n(C)c(=O)c21.O=C(O)C(F)(F)F` [Example 82, 7-(2-Butynyl)-2-cyano-1-methyl-8-(piperazin-1-yl)-1,7-dihydropurin-6-one trifluoroacetate], the “range of acceptable timing of administration” value (“range” for short) in assay [2] is “sufficiently wide ranges of acceptable timing of administration”. In assay [3], the “change in the blood glucose level” value is reported as “no significant change”. Moreover, the IC50 in assay [4] was at least 10 µM; in [5] it was at least 10 µM; in assay [6], at least 10 µM; in assay [7], at least 10 µM; in assay [8], at least 10 µM; in [9], at least 30 µM.

As for `CC#CCn1c(N2CCNCC2)nc2nc(C(N)=O)n(C)c(=O)c21` [Example 83, 7-(2-Butynyl)-1-methyl-6-oxo-8-(piperazin-1-yl)-6,7-dihydro-1H-purine-2-carboxamide], the IC50 in assay [1] was found to be 0.0274 µM.

With `CC#CCn1c(N2CCNCC2)nc2cnn(C)c(=O)c21` [Example 119, 3-(2-Butynyl)-5-methyl-2-(piperazin-1-yl)-3,5-dihydroimidazo[4,5-d]pyridazin-4-one], the “range” value in assay [2] is recorded as “sufficiently wide ranges of acceptable timing of administration”. The “change in the blood glucose level” value in assay [3] is given as “no significant change”. In addition, the IC50 in [4] is at least 10 µM; in assay [5], at least 10 µM; in assay [6], at least 10 µM; in assay [7], at least 10 µM; in assay [8] it was at least 10 µM; in assay [9] it was at least 30 µM.

Regarding `CC#CCn1c(N2CCCC(N)C2)nc2cnn(C)c(=O)c21.O=C(O)C(F)(F)F` (centres unmarked) [Example 120, 2-(3-Aminopiperidin-1-yl)-3-(2-butynyl)-5-methyl-3,5-dihydroimidazo[4,5-d]pyridazin-4-one trifluoroacetate], in assay [2], the “range” value is reported as “sufficiently wide ranges of acceptable timing of administration”. Further, the “change in the blood glucose level” value in assay [3] is on record as “no significant change”. The IC50 in assay [4] is at least 10 µM; in assay [5], at least 10 µM; in [6], at least 10 µM; in assay [7], at least 10 µM; in assay [8], at least 10 µM; in assay [9] it was at least 30 µM.

Consider `CC#CCn1c(N2CCNCC2)nc2nc(Oc3ccccc3C(N)=O)n(C)c(=O)c21` [Example 122, 2-[7-(2-Butynyl)-1-methyl-6-oxo-8-(piperazin-1-yl)-6,7-dihydro-1H-purin-2-yloxy]benzamide], for which the IC50 was 0.0153 µM in [1]; at least 10 µM in assay [4]; at least 10 µM in assay [5]; at least 10 µM in assay [6]; at least 10 µM in assay [7]; at least 10 µM in [8]. In assay [9], this molecule showed an IC50 of at least 30 µM. Besides, the “range” value in assay [2] is “sufficiently wide ranges of acceptable timing of administration”. Also, the “change in the blood glucose level” value in assay [3] is reported as “no significant change”.

For the molecule `CC#CCn1c(N2CCNCC2)nc2nc(C#N)n(Cc3ccccc3C#N)c(=O)c21.Cl` [Example 229, 7-(2-Butynyl)-1-(2-cyanobenzyl)-6-oxo-8-(piperazin-1-yl)-6,7-dihydro-1H-purine-2-carbonitrile hydrochloride], the “range” value in assay [2] is “sufficiently wide ranges of acceptable timing of administration”. In addition, the “change in the blood glucose level” value in [3] is “no significant change”. Moreover, the half-inhibitory concentration (IC50) is at least 10 µM in [4]; at least 10 µM in assay [5]; at least 10 µM in assay [6]; at least 10 µM in assay [7]; at least 10 µM in [8]; at least 30 µM in [9].

Regarding `CC#CCn1c(N2CCNCC2)nc2nc(Oc3ccccc3C(N)=O)n(Cc3ccc(C#N)cc3)c(=O)c21` [Example 235, 2-[7-(2-Butynyl)-1-(4-cyanobenzyl)-6-oxo-8-(piperazin-1-yl)-6,7-dihydro-1H-purin-2-yloxy]benzamide trifluoroacetate], the IC50 in assay [1] is 0.00144 µM.

The molecule `CC#CCn1c(N2CCNCC2)nc2nc(Oc3ccccc3C(N)=O)n(Cc3cccc(C#N)c3)c(=O)c21` [Example 238, 2-[7-(2-Butynyl)-1-(3-cyanobenzyl)-6-oxo-8-(piperazin-1-yl)-6,7-dihydro-1H-purin-2-yloxy]benzamide trifluoroacetate] showed an IC50 in assay [1] of 0.00119 µM.

For `CC#CCn1c(N2CCNCC2)nc2cnn(Cc3ccccc3C#N)c(=O)c21.O=C(O)C(F)(F)F` [Example 267, 2-[3-(2-Butynyl)-4-oxo-2-(piperazin-1-yl)-3,4-dihydroimidazo[4,5-d]pyridazin-5-ylmethyl]benzonitrile trifluoroacetate], the “range” value in assay [2] is “sufficiently wide ranges of acceptable timing of administration”. The “change in the blood glucose level” value in assay [3] is recorded as “no significant change”. In addition, the IC50 is at least 10 µM in assay [4]; at least 10 µM in assay [5]; at least 10 µM in assay [6]; at least 10 µM in [7]; at least 10 µM in [8]; at least 30 µM in [9].

Values taken from patent US20060100199A1, “Novel condensed imidazole derivatives” (priority 2003, published 2006).
